This note sets out measurements from US7674471B2, “Topical composition, topical composition precursor, and methods for manufacturing and using” (Skinvisible Pharmaceuticals, Inc., priority 2001, dated 2010).

The series in a line: solubility in water or solvents. From the text:
In addition, β-cyclodextrin is a relatively small molecule with all of its —OH groups lying on the outside of the molecule. If all of the —OH groups formed complexes with pyrrolidone groups, none would be available to promote water solubility.

Regarding Polyvinylpyrrolidone [PVP], the solubility in water result is recorded as “quite water soluble”. Regarding Dextran-70, the solubility in water result is recorded as “extremely soluble in water”.
